This is an account of results in paper PMC4789278, “Pharmacological inhibition of LSD1 for the treatment of MLL-rearranged leukemia” (Journal of Hematology & Oncology, 2016).

One data set deals with MV4-11 leukemia cells. Put plainly: Antiproliferation assay (XTT), MV4-11. Type of data set: cell-based. Conditions: Homo sapiens, MV4-11, 360 h; 15-day treatment; MLL-rearranged leukemia; read-out: MV4-11 EC50 (antiproliferative). The method, then: Next, these three compounds were tested for their cellular activity against proliferation of MV4-11 leukemia cells bearing MLL-AF4 fusion oncogene.
These compounds were incubated with a panel of six human leukemia and solid tumor cell lines, including two MLL-rearranged leukemia cells MV4-11 and Molm-13 containing fusion oncogenes MLL-AF4 and -AF9, respectively. […] Also included in the studies are breast cancer MCF-7 and prostate cancer LNCaP cells.
Proliferation inhibition assay for suspension leukemia cells was performed using an XTT assay kit (Roche) with our previously described method. Proliferation inhibition assay for solid tumor cell lines MCF-7 and LNCaP was performed using our previous described MTT assay. The antiproliferation EC50 values were determined by Prism, and the reported results were the mean values of at least three independent experiments.

Details of data set [1]: method as in PMID 22754608. Conditions: mice; cited from earlier work.
The target in a further data set is T1, human MAO-B (Homo sapiens, UniProt P27338).
T1 construct: purchased Sigma
T1 sequence (P27338 1-520): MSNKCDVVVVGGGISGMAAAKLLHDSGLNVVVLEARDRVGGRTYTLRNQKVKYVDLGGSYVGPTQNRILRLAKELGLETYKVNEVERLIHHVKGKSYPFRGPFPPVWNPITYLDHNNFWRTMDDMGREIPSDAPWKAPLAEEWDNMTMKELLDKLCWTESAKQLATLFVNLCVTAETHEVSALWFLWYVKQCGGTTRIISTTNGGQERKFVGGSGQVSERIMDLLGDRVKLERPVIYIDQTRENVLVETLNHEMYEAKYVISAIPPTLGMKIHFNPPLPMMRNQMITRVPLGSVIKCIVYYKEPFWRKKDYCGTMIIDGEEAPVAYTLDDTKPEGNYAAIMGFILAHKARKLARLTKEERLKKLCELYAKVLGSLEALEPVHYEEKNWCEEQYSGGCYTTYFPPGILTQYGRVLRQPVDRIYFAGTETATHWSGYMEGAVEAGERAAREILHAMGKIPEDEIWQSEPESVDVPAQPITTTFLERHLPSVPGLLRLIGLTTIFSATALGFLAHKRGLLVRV
Kind of data set: MAO-B inhibition (MAO-Glo). It is filed as biochemical. As to the method:
Because MAO-A and -B play important roles in the degradation of neurotransmitters (e.g., serotonin and dopamine) in the central nervous system, selective inhibition for LSD1 is highly desirable.
Recombinant human MAO-A and -B were purchased from Sigma. The inhibitory activity was determined using MAO-Glo assay kit (Promega). In brief, following the manufacturer’s protocol, assays were performed in 384-well white plates (Corning) using MAO-A or -B (100 nM) with a final volume of 20 μL. Reactions were quenched after 60 min by adding reconstituted luciferin detection reagent (20 μL/well); 20 min after addition of the detection reagent, the luminescence of each well was measured using Beckman DTX-880 microplate reader. IC50 calculation was similar to that of LSD1.

As to `CN1CCN(C(=O)CNC2CC2c2ccc(OCc3ccccc3)cc2)CC1` (stereo not drawn) [Compound 1], the EC50 in the data set with MV4-11 leukemia cells was 0.01 µM. The “half-life in the plasma” value in data set [1] is on record as ~ 1 h.

Compound `CN1CCN(C(=O)CNC2CC2c2ccc(-c3ccc(F)nc3)cc2)CC1` (stereo not drawn) [Compound 2] showed a concentration for half-maximal inhibition (IC50) at human MAO-B of 480 µM.

As a reminder, the EC50 is the concentration giving half of the maximal effect. By IC50 is commonly meant the point on the concentration scale where inhibition reaches its midpoint. A higher IC50 goes with weaker potency.
